Results as given in US11506670B2, “Method of genome-wide direct identification of electrophile-sensing targets” (Cornell University, priority 2018, dated 2022).

Experiments:
γ-H2AX = γ-H2AX immunofluorescence in HEK293T cells; type: cell-based, human
Experimental: Cells were grown to 70% confluence in 35 mm glass-bottomed dishes and transfected with HaloTagged plasmids. T-REX™ delivery was performed as mentioned above. […] The fixative was aspirated and the cells washed three times with 1×DPBS with 5-min incubation at room temperature. Blocking and permeabilization was performed in one-step by incubation at 37° C. for 1 h in 1×DPBS containing 3% BSA and 0.2% Triton X-100. Cells were subsequently incubated with primary antibody (1:300, Table 4) in incubation buffer (1% BSA, 0.02% Triton X-100 in 1×DPBS) for 2 h at room temperature. Cells were rinsed 3 times with 1×DPBS with 5 min incubation for each wash and subsequently incubated in dark for 1 h at room temperature with corresponding second antibody (1:1000, Table 4) in incubation buffer. Cells were rinsed 3 times with 1×DPBS with 5 min incubation for each rinse. DAPI (Sigma) was freshly prepared in 1×DPBS from 2 mg/mL wt./v stock solution in water and added to the wells at the final concentration of 0.2 μg/mL. The samples were incubated in dark for 1 min and washed once with 1×DPBS and stored at 4° C. in dark till images were taken using a Zeiss LSM 710 meta confocal fluorescence microscope. Image analysis was performed using Image-J (NIH).

Ube2V2 = Ube2V2 (Homo sapiens, UniProt Q15819); experiment: T-REX in zebrafish embryos, biotin/streptavidin pulldown of HNEylated Ube2V2; type: in vivo; conditions: human Halo-Ube2V2 mRNA-injected embryos
Sequence of Ube2V2 (Q15819 whole entry): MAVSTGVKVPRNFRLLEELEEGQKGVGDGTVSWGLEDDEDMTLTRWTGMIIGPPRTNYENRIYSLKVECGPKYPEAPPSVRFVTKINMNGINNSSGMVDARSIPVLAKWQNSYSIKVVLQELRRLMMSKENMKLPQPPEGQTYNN
Experimental: Zebrafish cell lysis was performed with similar procedure as mammalian cells: 50 mM HEPES (pH 7.6), 150 mM NaCl, 1% Nonidet P-40, 0.2 mg/ml soybean protease inhibitor (Sigma), and 3× Roche cOmplete, mini, EDTA-free protease inhibitor cocktail by rapid freeze-thaw and votexing with zirconia beads (Bio spec 0.7 mm beads; 11079107zx).
Total protein concentration from either mammalian cell lysate or zebrafish lysate was determined using Bradford assay with BSA as standard. The lysate was subsequently diluted to 2 mg/mL with a buffer made up of 50 mM HEPES (pH 7.6) and 0.3 mM TCEP, and subjected to Click reaction with biotin azide for 30 min at 37° C. The final concentrations of each components were: 1% SDS, 5% t-BuOH, 200 μM Biotin azide, 2 mM TCEP, 0.9 mM CuSO4 and 0.1 mM Cu(TBTA). The lysate proteins were precipitated by adding 4 volumes of EtOH pre-chilled at −20° C. (EtOH final concentration is 80%). The sample was vortexed and incubated at −80° C. overnight (or at least 4 h) to facilitate precipitation. The precipitant was collected by centrifugation at 21,000×g for 120 min at 4° C. and washed twice with pre-chilled MeOH, once with pre-chilled acetone. […]
DDR preconditioning occurs in zebrafish embryos. […] Subsequently, the fish were fixed and γ-H2AX levels were measured using whole-mount immunofluorescence.

## CCCCCC(O)/C=C/C=O (stereo not shown) [HNE, 4-hydroxynonenal]
γ-H2AX; T-REX, over 18-h time course
  γ-H2AX upregulation in Ube2V2-C69S-expressing cells: no significant γ-H2AX upregulation
γ-H2AX; basal after 24 h
  time post light exposure up to which increased γ-H2AX could be measured: up to 18 h
γ-H2AX; wt-Halo-Ube2V2, T-REX
  increase in cellular γ-H2AX following Ube2V2(C69)-targeted-HNEylation: approximately two-fold
Ube2V2
  HNEylation of Ube2V2 in zebrafish: significantly HNEylated
